Legend:
[1] = system: posterior pituitary glands; assay: Oxytocin release from whole posterior pituitary glands (enzyme immunoassay); format: cell-based, rats
Description: Posterior pituitary. Experiments were performed on posterior pituitary glands removed from rats of either sex, ranging in age from 1-3 months. Animals were rendered unconscious by inhalation of CO2, and killed by decapitation. Glands were removed rapidly to maintain tissue health, and transferred to physiological saline (in mM: 125 NaCl, 4 KCl, 26 NaHCO3, 1.25 NaH2PO4, 2 CaCl2, 1 MgCl2, 10 glucose) bubbled with 95% O2/5% CO2 (Jackson et al., 1991, Action potential broadening and frequency-dependent facilitation of calcium signals in pituitary nerve terminals. Proc. Roy. Soc. Lond. 88:380-384). For oxytocin release experiments the pituitary was kept intact. For electrophysiological recordings, slices of posterior pituitary were cut at 70 μm with a vibratome and maintained in physiological saline. Oxytocin release. Whole pituitary glands with attached axon bundle were placed in a chamber perfused with oxygenated physiological saline. Perfusion was stopped at ˜15 min intervals during measurements, when the physiological saline was substituted with a solution of a similar composition, but with the addition of 20 mM HEPES and NaHCO3, and NaH2PO4 reduced to zero. The pH was adjusted to 7.3 with NaOH. Basal release was measured after a 5 min waiting period (immediately before the stimulus application). The axon bundle was stimulated via a large-diameter, monopolar extracellular glass electrode. Oxytocin release was evoked by a series of 5 trains of 0.2 msec, 0.2 mA current pulses with a frequency of 25 Hz and a duration of 10 seconds. Trains were applied at 1 min intervals. Evoked release was measured 5 minutes after the end of stimulation by gently mixing the bath with a micropipette and collecting 10-20 μL samples in the vicinity of the tissue. Three separate samples were collected for each measurement (including basal release control). Perfusion of the oxygenated physiological saline was restored immediately after sample collection and sildenafil was added to the bath solution for 30-60 min. Recordings of the sildenafil effect on basal and evoked release were then repeated as described above. To control for possible rundown of release, measurements of sildenafil effects were in some cases substituted by the second control measurements. Oxytocin was measured in collected fluid using the Correlate-EIA enzyme immunoassay kit (Assay Designs, Ann Arbor, Mich.). Oxytocin concentration was inversely proportional to the yellow color generated by the immunoassay and was scanned into the computer using an automated micro plate reader at 405 nm. Actual oxytocin concentration was determined with a standard curve measured for each sample plate.

[2] = system: BK channels in pituitary nerve terminals; assay: Patch clamp recordings of potassium current in posterior pituitary slices after photolysis of caged cGMP; format: cell-based, rats; settings: slices bathed in 15 μM sildenafil, control recovered in about 3 minutes
Description: Posterior pituitary. Experiments were performed on posterior pituitary glands removed from rats of either sex, ranging in age from 1-3 months. Animals were rendered unconscious by inhalation of CO2, and killed by decapitation. Glands were removed rapidly to maintain tissue health, and transferred to physiological saline (in mM: 125 NaCl, 4 KCl, 26 NaHCO3, 1.25 NaH2PO4, 2 CaCl2, 1 MgCl2, 10 glucose) bubbled with 95% O2/5% CO2 (Jackson et al., 1991, Action potential broadening and frequency-dependent facilitation of calcium signals in pituitary nerve terminals. Proc. Roy. Soc. Lond. 88:380-384). For oxytocin release experiments the pituitary was kept intact. For electrophysiological recordings, slices of posterior pituitary were cut at 70 μm with a vibratome and maintained in physiological saline. Electrophysiology. Recordings of K^+ current were made with patch pipettes filled with (in mM) 130 KCl, 10 NaCl, 10 HEPES, 4 Mg-ATP, 0.3 GTP, 5 EGTA, pH 7.3. Individual nerve terminals were identified in an upright DIC microscope, Jackson, 1993. Passive current flow and morphology in the terminal arborizations of the posterior pituitary. J. Neurophysiol. 69, 692-702, and voltage or current clamped with an EPC-7 patch clamp amplifier. […] The component of potassium current corresponding to BK channels (seen at the end of a 200 msec voltage step from −80 to 50 mV) was determined for each pulse. […]

pituitary nerve terminal = settings: after 5 or 10 seconds of high frequency stimulation; control ~30%; cited from earlier work
[3] = 7-NI 100 μM with sildenafil 10 μM

With `O=[N+]([O-])c1cccc2cn[nH]c12` [7-NI, 7-nitorindazol] the “effect on sildenafil-induced increase in basal oxytocin release” value [1, 3] was “blocked” and the “effect on sildenafil-induced increase in evoked oxytocin release” value [1, 3] was “blocked”.
For `CCCc1nn(C)c2c(=O)[nH]c(-c3cc(S(=O)(=O)N4CCN(C)CC4)ccc3OCC)nc12` [Sildenafil, 5-[2-ethoxy-5-(4-methyl-1-piperazinylsulphonyl)phenyl]-1-methyl-3-n-propyl-1,6-dihydro-7H-pyrazolo [4,3-d]pyrimidin-7-one], the basal oxytocin release ([1]; sildenafil 10 μM, 30-60 min in bath) was “insignificant increase”, the evoked oxytocin release ([1]; sildenafil 10 μM, electrical stimulation of axon bundle) was “large and significant increase” and the “recovery of the cGMP-induced increase in potassium current” value [2] was “greatly slowing the recovery”. For the same compound, the “recovery of the cGMP-induced increase in potassium current” value ([2]; listed as sildenafil) was “failed to recover”.
For `Nc1nc2c(ncn2[C@@H]2O[C@@H]3COP(=O)(O)O[C@H]3[C@H]2O)c(=O)[nH]1` [cGMP], the “success rate of stimulus pulses evoking action potentials” value (pituitary nerve terminal) is given as ~60%.

From patent US20070010525A1, “Method and compositions for modulating neuropeptide hormone secretion” (priority 2005, published 2007)
